Reference: article PMC8580996, “2-Oxoglutarate derivatives can selectively enhance or inhibit the activity of human oxygenases” (Nature Communications, 2021)
“And” between values parts separate entries of the source, which are not always exact repeats. Equal values may be shown once.

Key:
[1] = target: T1, AspH (Homo sapiens, UniProt Q12797); design: method as in PMID 34163896; conditions: hFX-CP101–119 substrate, 330 μM 2OG or 2OG derivative, t = 15 min; cited from earlier work
T1 construct: the tetratricopeptide repeat domain (His6-AspH315-758), was produced and purified as previously reported; made in house
T1 sequence (Q12797 315-758): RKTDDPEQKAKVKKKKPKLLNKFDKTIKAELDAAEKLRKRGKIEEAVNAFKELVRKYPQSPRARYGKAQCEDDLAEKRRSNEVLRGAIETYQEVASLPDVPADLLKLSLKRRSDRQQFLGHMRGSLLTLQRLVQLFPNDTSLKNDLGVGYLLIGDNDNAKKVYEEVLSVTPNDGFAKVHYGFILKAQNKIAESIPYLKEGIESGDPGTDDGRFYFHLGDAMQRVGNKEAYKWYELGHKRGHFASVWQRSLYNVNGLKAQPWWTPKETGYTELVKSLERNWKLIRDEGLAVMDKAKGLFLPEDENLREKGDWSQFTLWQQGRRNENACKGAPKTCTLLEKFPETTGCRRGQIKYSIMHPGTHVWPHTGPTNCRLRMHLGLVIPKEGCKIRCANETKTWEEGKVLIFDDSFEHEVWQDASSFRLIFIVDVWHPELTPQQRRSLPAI

[2] = target: FIH (Homo sapiens, UniProt Q9NWT6); assay: FIH steady-state kinetic parameters (SPE-MS, initial hydroxylation rates); assay type: biochemical; design: slope of initial reaction rate: unit not given here
Chain of FIH (Q9NWT6 whole entry): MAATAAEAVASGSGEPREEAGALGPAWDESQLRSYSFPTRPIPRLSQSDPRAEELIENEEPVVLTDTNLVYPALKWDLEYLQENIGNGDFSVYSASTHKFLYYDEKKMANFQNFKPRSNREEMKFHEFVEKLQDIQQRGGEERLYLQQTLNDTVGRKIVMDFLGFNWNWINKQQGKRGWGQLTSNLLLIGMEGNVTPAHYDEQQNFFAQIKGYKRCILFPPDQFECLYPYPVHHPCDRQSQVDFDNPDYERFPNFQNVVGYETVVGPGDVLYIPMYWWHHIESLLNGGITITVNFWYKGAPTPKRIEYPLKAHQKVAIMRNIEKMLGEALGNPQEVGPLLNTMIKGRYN
Protocol: Final 2OG/2OG derivative concentrations are given in Supplementary Figs. 5 and 6. Reactions were monitored with a rate of ~1 sample/40 s using the same SPE-MS configuration as described above. Data were analyzed as described above and the slopes of the initial reaction rates (Supplementary Figs. 5 and 6) fitted to a Michaelis–Menten plot using non-linear regression (GraphPad Prism 5). […]
determine kinetic parameters for 2OG derivatives (continues on the following page). Maximum velocities (vapp ) and Michaelis constants (Kapp) of FIH were determined in independent triplicates for 2OG and the 2OG […]
SPE-MS as described in the Methods section. […]
acid (LAA), and 20 μM ammonium iron(II) sulfate hexahydrate (FAS, (NH4)2Fe(SO4)2·6H2O) in buffer (50 mM […]
Tris, 50 mM NaCl, pH 7.5, 20° C). […]
data are provided as a Source Data file. […]
concentrations of 2OG; (b) hydroxylation rates used to determine kinetic parameters of FIH for 2OG; (c) time […]
3-methyl-2OG (1); (d) hydroxylation rates used to determine kinetic parameters of FIH for 1; (e) time course of […]
2OG (12); (f) hydroxylation rates used to determine kinetic parameters of FIH for 12; (g) time course of the FIH- […]
(h) hydroxylation rates used to determine kinetic parameters of FIH for 14; (i) time course of the FIH-catalyzed […]
(carboxycarbonyl)cyclopentane-1-carboxylic acid (22); (j) hydroxylation rates used to determine kinetic parameters of FIH for 22.
Supplementary Figure 6. Hydroxylation rates of FIH-catalyzed CA1-20 hydroxylations used to determine kinetic parameters for 2OG derivatives (continues on the following page). Maximum velocities (vapp ) and […]
ammonium iron(II) sulfate hexahydrate (FAS, (NH4)2Fe(SO4)2·6H2O) in buffer (50 mM Tris, 50 mM NaCl, pH […]
Source data are provided as a Source […]
of 2OG; (b) hydroxylation rates used to determine kinetic parameters of FIH for 2OG; (c) time course of the FIH-catalyzed hydroxylation reaction of the CA1-20 peptide for the shown concentrations of 3-methyl-2OG (1); (d) hydroxylation rates used to determine kinetic parameters of FIH for 1; (e) time course of the FIH -catalyzed hydroxylation reaction of the CA 1-20 peptide for the shown concentrations of 4 -methyl-2OG (12); (f) hydroxylation rates used to determine kinetic parameters of FIH for 12; (g) time course of the FIH-catalyzed hydroxylation reaction of the CA1-20 peptide for the shown concentrations of 4-ethyl-2OG (14); (h) hydroxylation rates used to determine kinetic parameters of FIH for 14; (i) time course of the FIH-catalyzed hydroxylation reaction of the CA1-20 peptide for the shown concentrations of 3-(carboxycarbonyl)cyclopentane-1-carboxylic acid (22); (j) hydroxylation rates used to determine kinetic parameters of FIH for 22.

Structure (SMILES): CCC(CC(=O)C(=O)O)C(=O)O (stereo not drawn) [compound 14, 4-ethyl-2OG]
- AspH activity, %-substrate conversion [1]: <1%
- SPE-MS determined concentration of hydroxylated HIF-1a peptide ([2]; 0.5 uM compound 14, time 2.797 min): 0.04266 µM and 0.0716 µM and 0.08092 µM
- SPE-MS determined concentration of hydroxylated HIF-1a peptide ([2]; 1 uM compound 14, time 2.797 min): 0.09973 µM and 0.05746 µM and 0.08941 µM
- SPE-MS determined concentration of hydroxylated HIF-1a peptide ([2]; 1 uM compound 14, time 3.49667 min): 0.115 µM and 0.07268 µM and 0.1031 µM
- SPE-MS determined concentration of hydroxylated HIF-1a peptide ([2]; 1 uM compound 14, time 4.19733 min): 0.119 µM
- SPE-MS determined concentration of hydroxylated HIF-1a peptide ([2]; 2 uM compound 14, time 2.098 min): 0.07647 µM and 0.1051 µM and 0.08874 µM
- SPE-MS determined concentration of hydroxylated HIF-1a peptide ([2]; 2 uM compound 14, time 2.797 min): 0.08846 µM and 0.1193 µM and 0.1194 µM
- SPE-MS determined concentration of hydroxylated HIF-1a peptide ([2]; 2 uM compound 14, time 3.49667 min): 0.1173 µM and 0.1355 µM and 0.125 µM
- SPE-MS determined concentration of hydroxylated HIF-1a peptide ([2]; 2 uM compound 14, time 4.19733 min): 0.1246 µM and 0.1503 µM and 0.1494 µM
- SPE-MS determined concentration of hydroxylated HIF-1a peptide ([2]; 4 uM compound 14, time 0.699833 min): 0.04117 µM and 0.06069 µM and 0.06774 µM
- SPE-MS determined concentration of hydroxylated HIF-1a peptide ([2]; 4 uM compound 14, time 2.098 min): 0.09804 µM and 0.1128 µM and 0.1303 µM
- SPE-MS determined concentration of hydroxylated HIF-1a peptide ([2]; 4 uM compound 14, time 2.797 min): 0.119 µM and 0.1335 µM and 0.1587 µM
- SPE-MS determined concentration of hydroxylated HIF-1a peptide ([2]; 4 uM compound 14, time 3.49667 min): 0.1494 µM and 0.1576 µM and 0.1863 µM
- SPE-MS determined concentration of hydroxylated HIF-1a peptide ([2]; 4 uM compound 14, time 4.19733 min): 0.1634 µM and 0.187 µM and 0.2105 µM
- SPE-MS determined concentration of hydroxylated HIF-1a peptide ([2]; 8 uM compound 14, time 0.699833 min): 0.05237 µM and 0.05984 µM and 0.05853 µM
- SPE-MS determined concentration of hydroxylated HIF-1a peptide ([2]; 8 uM compound 14, time 2.098 min): 0.1084 µM and 0.1284 µM and 0.1223 µM
- SPE-MS determined concentration of hydroxylated HIF-1a peptide ([2]; 8 uM compound 14, time 2.797 min): 0.1357 µM and 0.1566 µM and 0.1624 µM
- SPE-MS determined concentration of hydroxylated HIF-1a peptide ([2]; 8 uM compound 14, time 3.49667 min): 0.1592 µM and 0.1706 µM and 0.1851 µM
- SPE-MS determined concentration of hydroxylated HIF-1a peptide ([2]; 8 uM compound 14, time 4.19733 min): 0.1873 µM and 0.2041 µM and 0.2053 µM
- SPE-MS determined concentration of hydroxylated HIF-1a peptide ([2]; 16 uM compound 14, time 0.699833 min): 0.04301 µM and 0.07322 µM and 0.06274 µM
- SPE-MS determined concentration of hydroxylated HIF-1a peptide ([2]; 16 uM compound 14, time 2.098 min): 0.1098 µM and 0.1258 µM and 0.1325 µM
- SPE-MS determined concentration of hydroxylated HIF-1a peptide ([2]; 16 uM compound 14, time 2.797 min): 0.1413 µM and 0.1532 µM and 0.1654 µM
- SPE-MS determined concentration of hydroxylated HIF-1a peptide ([2]; 16 uM compound 14, time 3.49667 min): 0.1747 µM and 0.1882 µM and 0.2002 µM
- SPE-MS determined concentration of hydroxylated HIF-1a peptide ([2]; 16 uM compound 14, time 4.19733 min): 0.1989 µM and 0.216 µM and 0.231 µM
- SPE-MS determined concentration of hydroxylated HIF-1a peptide ([2]; 32 uM compound 14, time 0.699833 min): 0.0551 µM and 0.06691 µM and 0.07521 µM
- SPE-MS determined concentration of hydroxylated HIF-1a peptide ([2]; 32 uM compound 14, time 2.098 min): 0.1143 µM and 0.1231 µM and 0.1358 µM
- SPE-MS determined concentration of hydroxylated HIF-1a peptide ([2]; 32 uM compound 14, time 2.797 min): 0.1568 µM and 0.1531 µM and 0.1667 µM
- SPE-MS determined concentration of hydroxylated HIF-1a peptide ([2]; 32 uM compound 14, time 3.49667 min): 0.1879 µM and 0.1751 µM and 0.1995 µM
- SPE-MS determined concentration of hydroxylated HIF-1a peptide ([2]; 32 uM compound 14, time 4.19733 min): 0.214 µM and 0.2049 µM and 0.2308 µM
- slope of initial reaction rate ([2]; CA1-20, 1 μM 14): 0.002761 and 0.002095 and 0.002277
- slope of initial reaction rate ([2]; CA1-20, 2 μM 14): 0.00488 and 0.004776 and 0.004739
- slope of initial reaction rate ([2]; CA1-20, 4 μM 14): 0.007334 and 0.006606 and 0.007233
- slope of initial reaction rate ([2]; CA1-20, 8 μM 14): 0.009175 and 0.0109 and 0.00922
- slope of initial reaction rate ([2]; CA1-20, 16 μM 14): 0.01109 and 0.0126 and 0.01075
- slope of initial reaction rate ([2]; CA1-20, 32 μM 14): 0.01017 and 0.00931 and 0.01176
- slope of initial reaction rate ([2]; HIF-1a788-822, 0.5 μM 14): 0.000241 and 0.000243 and 0.000366
- slope of initial reaction rate ([2]; HIF-1a788-822, 1 μM 14): 0.000319 and 0.00043 and 0.000499
- slope of initial reaction rate ([2]; HIF-1a788-822, 2 μM 14): 0.000549 and 0.000605 and 0.000685
- slope of initial reaction rate ([2]; HIF-1a788-822, 4 μM 14): 0.000653 and 0.000643 and 0.000856
- slope of initial reaction rate ([2]; HIF-1a788-822, 8 μM 14): 0.000767 and 0.000839 and 0.000864
- slope of initial reaction rate ([2]; HIF-1a788-822, 16 μM 14): 0.00082 and 0.000767 and 0.000893
- slope of initial reaction rate ([2]; HIF-1a788-822, 32 μM 14): 0.000874 and 0.000847 and 0.00081
